# System: HEK293T cells carrying the ATF4 luciferase reporter
# Assay: ATF4-Luc assay (in vitro model of vanishing white matter disease)
# Type: cell-based, human
# Conditions: Homo sapiens, HEK-293T; HEK293T cells with ATF4 5'-UTR firefly luciferase reporter; 1 μg/mL tunicamycin; 7 hours; One Glo luminescence
# Description: In order to test exemplary compounds of the invention in a cellular context, a stable VWMD cell line was first constructed. The ATF4 reporter was prepared by fusing the human full-length ATF4 5′-UTR (NCBI Accession No. BC022088.2) in front of the firefly luciferase (FLuc) coding sequence lacking the initiator methionine as described in Sidrauski et al (eLife 2013). The construct was used to produce recombinant retroviruses using standard methods and the resulting viral supernatant was used to transduce HEK293T cells, which were then subsequently selected with puromycin to generate a stable cell line.
# HEK293T cells carrying the ATF4 luciferase reporter were plated on polylysine coated 384-well plates (Greiner Bio-one) at 30,000 cells per well. Cells were treated the next day with 1 μg/mL tunicamycin and 200 nM of a compound of Formula (I) for 7 hours. Luminescence was measured using One Glo (Promega) as specified by the manufacturer. Cells were maintained in DMEM with L-glutamine supplemented with 10% heat-inactivated FBS (Gibco) and Antibiotic-Antimycotic solution (Gibco).
# Table 2 below summarizes the EC50 data obtained using the ATF4-Luc assay for exemplary compounds of the invention.
row,SMILES,EC50
1,"O=C(COc1ccc(Cl)c(F)c1)N[C@H]1CC[C@H](N2CCN(c3ccc(C(F)(F)F)cn3)C2=O)CC1 [Compound 132, 2-(4-chloro-3-fluorophenoxy)-N-[(1r,4r)-4-{2-oxo-3-[5-(trifluoromethyl)pyridin-2-yl]imidazolidin-1-yl}cyclohexyl]acetamide]",< 50 nM
2,"O=C(COc1ccc(Cl)c(F)c1)NC12CCC(N3CC(c4ccc(Cl)c(F)c4)CC3=O)(CC1)C[C@@H]2O (stereo partly drawn) [Compound 163, 2-(4-chloro-3-fluorophenoxy)-N-{(2S)-4-[4-(4-chloro-3-fluorophenyl)-2-oxopyrrolidin-1-yl]-2-hydroxybicyclo[2.2.2]octan-1-yl}acetamide]",< 50 nM
3,"CC1(c2ccc(Cl)cc2)CN=C(C23CC(NC(=O)COc4ccc(Cl)c(F)c4)(C2)C3)O1 (stereo not drawn) [Compound 164, 2-(4-chloro-3-fluorophenoxy)-N-{3-[5-(4-chlorophenyl)-5-methyl-4,5-dihydro-1,3-oxazol-2-yl]bicyclo[1.1.1]pentan-1-yl}acetamide]",250 to 1000 nM
4,"O=C(COc1ccc(Cl)c(F)c1)NC12CC(N3CC(c4ccc(Cl)c(F)c4)=CC3=O)(C1)C2 [Compound 165, 2-(4-chloro-3-fluorophenoxy)-N-{3-[4-(4-chloro-3-fluorophenyl)-2-oxo-2,5-dihydro-1H-pyrrol-1-yl]bicyclo[1.1.1]pentan-1-yl}acetamide]",< 50 nM
5,"O=C(NC12CC(N3CC(c4ccc(Cl)c(F)c4)OC3=O)(C1)C2)c1cnc(C(F)F)cn1 (stereo not drawn) [Compound 166, N-{3-[5-(4-chloro-3-fluorophenyl)-2-oxo-1,3-oxazolidin-3-yl]bicyclo[1.1.1]pentan-1-yl}-5-(difluoromethyl)pyrazine-2-carboxamide]",> 2000 nM
6,"O=C(NC12CC(N3CC(c4ccc(Cl)c(F)c4)OC3=O)(C1)C2)c1cc(C(F)F)no1 (stereo not drawn) [Compound 167, N-{3-[5-(4-chloro-3-fluorophenyl)-2-oxo-1,3-oxazolidin-3-yl]bicyclo[1.1.1]pentan-1-yl}-3-(difluoromethyl)-1,2-oxazole-5-carboxamide]",> 2000 nM
7,"O=C(COc1ccc(Cl)c(F)c1)NC12CC(N3Cc4cc5ccccc5cc4C3=O)(C1)C2 [Compound 168, 2-(4-chloro-3-fluorophenoxy)-N-[3-(1-oxo-1,3-dihydro-2H-benzo[f]isoindol-2-yl)bicyclo[1.1.1]pentan-1-yl]acetamide]",250 to 1000 nM
8,"O=C(COc1ccc(Cl)c(F)c1)NC12CC(N3CC(c4ccc(Cl)cc4)COC3=O)(C1)C2 (stereo not drawn) [Compound 169, 2-(4-chloro-3-fluorophenoxy)-N-{3-[5-(4-chlorophenyl)-2-oxo-1,3-oxazinan-3-yl]bicyclo[1.1.1]pentan-1-yl}acetamide]",250 to 1000 nM

# System: not given
# Assay: not given
# Conditions: not given
row,SMILES,melting point
1,"O=C(COc1ccc(Cl)c(F)c1)N[C@H]1CC[C@H](N2CCN(c3ccc(C(F)(F)F)cn3)C2=O)CC1 [Compound 132, 2-(4-chloro-3-fluorophenoxy)-N-[(1r,4r)-4-{2-oxo-3-[5-(trifluoromethyl)pyridin-2-yl]imidazolidin-1-yl}cyclohexyl]acetamide]",232 °C

# — patent US20200347033A1, “MODULATORS OF THE INTEGRATED STRESS PATHWAY” (Calico Life Sciences LLC, priority 2017, published 2020)
